The results in this text go back to a melting point compilation (Tetko et al.; mined from patent text by program, amines drawn as free bases though some values may be those of a salt).

Residues, ends and D or L forms follow the SMILES beside them.

By melting point is commonly meant the temperature of the solid-liquid transition. Regarding `O=Cc1ccc2c(c1)c1ccccc1n2CCCCCCCCCCn1c2ccccc2c2cc(C=O)ccc21`, the melting point turned out to be 122 °C.

`CC(=O)Oc1cccc2c1C(=O)c1c(OC(C)=O)cc(-c3nnn[nH]3)cc1C2=O`: the melting point fell in the range of 189 to 190 °C. For `c1coc(C2=NOCCS2)c1` the value was 147 to 150 °C; for `COC(=O)ONC(=N)Nc1ccc(C(=O)O)cc1`, 174 to 175 °C. Turning to `O=C(O)COc1cccc(CCn2ncc(-c3ccccc3)c2-c2ccccc2)c1`, the melting point was 133 to 138 °C.

Take `N#Cc1ccc(N2CCC(=O)CC2)cc1`: the melting point lay within 100 to 101 °C. The compound `COc1cc2c(cc1OC)C(c1sc(N)nc1C)=NCC2` yielded a melting point of 233 to 237 °C. For `NC(=O)c1ccc2c(c1)C(=O)C1(CC1)O2` the value was 243 to 244 °C.

With `CCCCCNC(=O)[C@H](Cc1ccc(N(CC(=O)O)CC(=O)O)cc1)NC(=O)[C@H](Cc1ccccc1)NC(=O)OC(C)(C)C`, the melting point was in the range of 151 to 152 °C. For `COc1ccc(OC)c(C2(C(C)(C)O)CCN(C)CC2)c1` the value was 139 to 140 °C; for `CC(C)(C)c1ccc(CCC(=O)C2CCCCCC2)cc1NC(=O)CC1c2ccccc2Oc2ccccc21`, 155 to 156 °C; for `CC(C)(C)Cn1c(=O)c(C#N)c(N2CCN(C(=O)c3cccs3)CC2)c2cccnc21`, 232 °C. For `CCCCCCCCCCCCC(C)CNc1cc(C)c([N+](=O)[O-])cc1C(=O)O` (configuration not stated) the value was 98 to 100 °C.

`Nc1c(Cl)cc(C(=O)OCC2CCN(CCCn3nc(Cl)ccc3=O)CC2)c2c1CCO2` came in with a melting point of 137 °C. `Cc1nc(-n2cnn(CC3CC3(F)F)c2=O)sc1C(=O)NCc1cccnc1` (configuration not stated) registered a melting point of 160 to 161 °C.

The compound `CC(O)(c1nc2ccc(S(=O)(=O)c3ccccc3)cc2[nH]1)C(F)(F)F` (configuration not stated) registered a melting point of 115 to 117 °C.

The compound `N#Cc1ccc(-c2cn(-c3ccc(C#N)cc3)c(SCC(O)CO)n2)cc1` (configuration not stated) registered a melting point of 190 to 195 °C.

The compound `O=C(O)CC(=O)Nc1ccccc1CCNC(=O)/C(=C/c1c[nH]c2ccccc12)NC(=O)OC1C2CC3CC(C2)CC1C3` (configuration not stated) registered a melting point of 112 to 120 °C. For `O=P(O)(O)C(O)(CC1(c2ccc(Cl)cc2)C=CN(c2ccccc2)N1)P(=O)(O)O` (configuration not stated) the value was 199 °C; for `CN(C)C(=O)C1(C)CN(C(=O)Nc2ccc(Cl)cc2)N=C1c1ccc(Cl)cc1` (configuration not stated), 194 to 197 °C; for `CCC[C@H]1CC[C@H](CCc2ccc(-c3ccc(OCC)c(F)c3F)cc2)CC1`, 73 °C. For `Cc1cc(C)c(Nc2nc(C)ncc2S(=O)(=O)c2ccc(-c3ccccn3)cc2)c(C)c1` the value was 201 to 203 °C; for `O=C(/C=C/c1ccc(O)c(O)c1)Nc1ccccc1C(=O)O`, 204 to 206 °C. `COc1ccccc1NC(=O)c1ccncc1` came in with a melting point of 79 to 80 °C. To `Fc1ccccc1CO[C@H]1CO[C@@H](c2ccccc2)OC1` belongs 65 to 67 °C; to `COc1cc(C(C)=O)ccc1OCCCN1CCC(c2noc3ccccc23)CC1`, 102 to 104 °C. For `CCOC1=C(C(=O)N(C)C)S(=O)(=O)N=C1N` the value was 221 to 223 °C; for `Cc1ccc(CC(N)=O)c(C)c1OC(F)F`, 136 to 137 °C.

In turn, `Cc1ccc(C2=CCC(O)CC2)cc1` (configuration not stated) yielded a melting point of 96.5 to 97.5 °C. Turning to `O=C1c2ccc([N+](=O)[O-])cc2COc2cc(Nc3ccc(F)cc3[N+](=O)[O-])ccc21`, the melting point amounted to 211 °C. `Cn1cncc1C(O)(c1ccc(Cl)cc1)c1ccc2c(c1)C(c1cccc(Cl)c1)OCC(=O)N2` (configuration not stated) returned a melting point of 260 °C.

For the compound `COc1ccc2c(c1)c(OC(C)C)c(C(=O)Nc1ccccc1O)n2-c1ccccc1`, the melting point lay within 168 to 170 °C. `Cn1nc(-c2ccccc2)c(N=O)c1N` showed a melting point of 230 to 231 °C. For `Cc1c(N2CC3CN(Cc4ccccc4)CC3C2)nn2c(-c3ccnc(NC(=O)OC(C)(C)C)c3)c(-c3ccc(F)cc3)nc2c1C` (configuration not stated) the value was 214 to 216 °C; for `COc1ccc2[nH]cc(C=C3OC(=O)N(Cc4cc(C(F)(F)F)cc(C(F)(F)F)c4)C3=O)c2c1`, 147 to 149 °C. To `CCOC(=O)c1cnn(-c2cccc(Cl)c2)c1C(N)=O` belongs 132 °C; to `Cc1ccccc1COC1(C)COC(CCl)OC1` (configuration not stated), 57 to 58 °C; to `Cc1cc(CNC(=O)c2cc(-c3ccc(C(C)(C)C)cc3)nn2CCN2CCOCC2)ccc1OC(C)(C)C(=O)O`, 140 °C. To `O=c1[nH]c(=O)n(C2CC(OCc3cccc(Cl)c3)C(CO)O2)cc1F` (configuration not stated) belongs 153 to 155 °C; to `CC(=O)N1CCC(c2ccc(S(N)(=O)=O)cc2)CC1`, 196 to 197 °C. `CCOC(C)=NS(=O)(=O)c1nc(-c2ccccc2)ns1` showed a melting point of 120 to 122 °C. To `CCNC(=O)NC(N)=O` belongs 158 to 160 °C. In the case of `Cc1ccc(S(=O)(=O)OC[C@H](CNC(=O)c2ccc(Cl)s2)OC(=O)Nc2ccc(N3CCOCC3=O)cc2)cc1`, the melting point turned out to be 142 °C. For `COc1ccc(CN2Cc3c(-c4nc(C5CC5)no4)ncn3-c3ccc(OC)cc3C2=O)c(OC)c1` the value was above 240 °C; for `CN1Cc2c(-c3noc(CN4CCCCC4)n3)ncn2-c2ccccc2C1=O`, 167 to 168 °C; for `CCOC(=O)CNC(=O)OCc1ccc(OC(C)=O)c(OC)c1`, 62 to 64 °C. For `COc1ccc2c3c(oc2c1)CCC(C(=O)O)=C3` the value was 228 to 231 °C; for `O=C(CN1CCC(Cc2ccccc2)CC1)Nc1cccc(NCc2ccccc2)c1`, 112 to 114 °C; for `O=C(O)Cc1cn(C(=O)c2cncs2)c2ccc(Cl)cc12`, 175 to 180 °C. To `COc1cc2c(cc1OC)CC(NCC(N)=O)C2` belongs 135 to 138 °C; to `COc1[nH]c(C)c(SC(F)(Cl)Cl)c1C#N`, 175 °C. `Cc1nc2cc(Nc3ncc4ccc(-c5cccc(S(=O)(=O)NC(C)(C)C)c5)n4n3)ccc2o1` showed a melting point of 212 to 214 °C. For `CCCCCCCCCCCCCCCCSCC(CO)NC(=O)OC` (configuration not stated) the value was 55 to 56 °C; for `C[Si](C)(C)C/C=C/[C@@H](Cc1ccccc1)C(=O)N1C(=O)OC[C@H]1Cc1ccccc1`, 132 to 135 °C. To `CCCCN1CCN(c2nc(C)c(C(=O)NCc3cccnc3)s2)C1=O` belongs 109 to 111 °C; to `Cc1ccc(-c2ncn(-c3ccc(C(F)(F)C(F)(F)C(F)(F)F)cc3)n2)cc1`, 140 to 143 °C. `CC(C)[C@@H](CO)Nc1nc(Nc2cccc(NS(C)(=O)=O)c2)nc2[nH]ccc12` displayed a melting point of 106 to 109 °C. Consider `C=CCn1c(=O)c2c(nc(/C=C/c3ccc(OC(C)=O)c(OC)c3)n2C)n(CC=C)c1=O`, for which the melting point was in the range of 207 to 208 °C. In turn, `Cc1ccc2c(c1)[nH]c(=O)n2CCCN1CCC2(CC1)C(=O)NCN2c1ccccc1` yielded a melting point of 256 °C. To `CNC[C@H]1CC[C@H](C(=O)O)CC1` belongs 261 °C; to `Clc1ccc2c(c1)C(n1ccnc1)c1ccccc1CO2` (configuration not stated), 180 to 182 °C. The compound `O=c1ccn(-c2ccc(Cl)cc2)nc1-c1ccnn1-c1ccccc1` returned a melting point of 219 to 220 °C. `CCCC(=O)c1c[nH]c2c(OC)cccc2c1=O` had a melting point of 200 to 202 °C. In turn, `O=Cc1c2ccccc2c(Cl)c2cc3ccccc3cc12` displayed a melting point of 212 to 214 °C. For `CC(=O)OCCCCn1c(=O)sc2c(=O)[nH]c(N)nc21` the value was 189 to 190 °C; for `Cc1ccc2[nH]c(-c3ccccc3)cc(=O)c2c1`, 290 to 292 °C. In turn, `Clc1cnn2c(-c3ccncc3)ccnc12` gave a melting point of 183 to 184 °C. To `O=c1[nH]c(-c2ccccn2)c(I)c(=O)n1-c1ccc(OC(F)(F)F)cc1` belongs 215 to 217 °C; to `C[C@H](Cn1cccn1)NC(=O)c1c[nH]c2ncc(-c3nn(C)c4cc(F)ccc34)nc12`, 252 to 253 °C.

The compound `CCC1(C)CC2(NC(=O)N(Cc3ccc(CN4C(=O)NC5(CC(C)(CC)NC(C)(CC)C5C)C4=O)cc3)C2=O)C(C)C(C)(CC)N1` (configuration not stated) displayed a melting point of 272 to 274 °C.

Turning to `CC(=O)NC(C)C(=O)NC(C)C(=O)NC(CC(C)C)C(=O)O` (stereo not drawn) (Ac-Ala-Ala-Leu-OH; configuration not given here), the melting point is 185 to 186 °C. In the case of `CS(=O)c1ccc(C(=O)O)cc1[N+](=O)[O-]` (configuration not stated), the melting point lay within 238 to 239 °C. As for `Nc1ncccc1OCc1ccc(Cl)cc1`, the melting point fell in the range of 121 to 123 °C. Turning to `CCOC(=O)CNC(=O)COc1ccc(C=O)cc1`, the melting point fell in the range of 94.5 to 95.5 °C.

Consider `CCOC(=O)N1CCCN(c2nc3ccccc3[nH]2)CC1`, for which the melting point was 161 to 162 °C. As for `Cc1ccc2c(c1)N(CC(=O)c1ccccc1C)C(=O)C(NC(=O)Nc1cccc(C(=O)O)c1)CN2C(=O)c1ccco1` (configuration not stated), the melting point fell in the range of 219 to 221 °C.

For the compound `CC(C)n1nc(-c2c(-c3ccccc3)nn3ccc(OCCN4CCCC4=O)cc23)ccc1=O`, the melting point fell in the range of 162 to 163 °C. To `N#CCCCSc1nccc(NC(=S)NCC(F)(F)F)n1` belongs 125 to 126 °C. `O=c1c(NCCCOc2cccc(CN3CCCCC3)c2)c(NCc2cccnc2)c1=O` came in with a melting point of 174 to 178 °C.

In turn, `CCOC(=O)c1nc2n(n1)-c1sc(C)c(C)c1C(c1ccccc1)=NC2` registered a melting point of 173 to 174 °C. To `CC(=O)c1cc(C(=O)OCc2ccco2)c(C2=NC(C)(C(C)C)C(=O)N2)nc1C` (configuration not stated) belongs 133 to 136 °C; to `Cc1c(CC(=O)O)c2cc(O)c(F)cc2n1C(=O)c1ccccc1`, 159 to 161 °C. For `O=C1C(=Cc2cccc(OCCCCl)c2)Cc2ccccc21`, the melting point lay in the range of 73 to 75 °C.

For `O=CC(=Cc1ccc(OC(=O)c2ccccc2F)cc1)C(C=O)=Cc1ccc(OC(=O)c2ccccc2F)cc1`, the melting point lay in the range of 197 to 199 °C. To `CCOc1ccnc(CSc2nc3cc4c(cc3[nH]2)C(C)(C)C(=O)C4(C)C)c1C` belongs 175 to 176 °C; to `O=S1NC(Cc2cc3cc(F)ccc3o2)=NO1` (configuration not stated), 144 to 145 °C.

On to `COC(=O)C1=C(C)NC(C)=C(C(=O)OC)C1c1ccccc1Cl`, for which the melting point lay within 188 to 189 °C.
